Assay results: patent US6153611A, “Piperazinyl-cyclohexanes and cyclohexenes” (Bristol-Myers Squibb Company, priority 1993, dated 2000)
Like-named read-outs stand apart in the source and are kept apart here.

Legend:
sigma receptor = target: T1, sigma receptor (Cavia porcellus, UniProt Q60492); assay: Sigma binding (method of Tam and Cook)
T1 construct: from tissue
Procedure: In vitro IC50 test values for binding to the sigma receptor were determined for representative compounds of Formula I by the method of Tam and Cook [see: Tam, S. W., and Cook, L: Proc. Natl. Acad. Sci. USA 81, 5618-5621 (1984)] with only minor modifications. Test IC50 values lower than 100 nM are considered to reflect activity at the sigma receptor.

brain ischemia = assay: Anoxic Nitrogen Test in Rats; assay type: in vivo, male Sprague-Dawley rats; settings: Rattus norvegicus, sc, subcutaneously, 2 hr survival, read-out: Nitrogen Anoxia % Survival
Description: Most specifically, administration of the compounds of Formula I results in protection against hypoxia-induced death in an anoxic nitrogen test in rats (Example 66). The test identifies the neuro-protective effects of substances against lethal brain damages produced by a lack of oxygen consumption (anoxia). In this test procedure, control animals exposed for one minute to a pure nitrogen atmosphere will expire because of respiratory failure caused by irreversible damage to the brain respiratory center.
Anoxic Nitrogen Test in Rats
The animals utilized are male Sprague-Dawley rats (200-400 grams) housed four animals per cage in a normal controlled environment with unlimited access to food and water. Usually there are 8 animals per dose, however, […] can be employed to obtain an initial impression of a compound's activity. Animals are parenterally or orally administered the vehicle or test compound 30 minutes before the anoxic insult. The anoxic episode consists of placing up to 8 animals in the sealed test chamber (10" l×10" w×6" h) continuously flushed with pure N2 (4.5 grade) at a flow rate of 5 SCFM for 1 min. Animals are then promptly removed to normal atmosphere and observed for the 2 hour period. Typically, animals become disoriented within 15 sec after which they remain motionless.
Even though the heart is still beating after the N2 exposure, all control animals fail to gasp when removed from the chamber and usually expire within 3 minutes. Drug treated animals, however, still gasp or start gasping after being removed, which is a good indication that the animals will survive the N2 exposure [see Wauquire, A., et al: Arch. Int. Pharmacodyn., 249, 330-334 (1981); Wauquier, A., et al: Drug Dev. Res., 8, 373-380 (1986)]. Results are recorded as:
(Number of animals surviving (2 hr))/(Number of animals tested)×100%
The anoxic nitrogen test is an in vivo model of brain ischemia in rats [see: Wauquire, A., et al: Arch. Int. Pharmacodyn., 249, 330-334 (1981); Wauquier, A., et al: Drug Dev. Res., 8, 373-380 (1986)]. Compounds of the present invention are active in this in vivo model of brain ischemia when given subcutaneously in the doses indicated in Table 2, thus providing additional evidence that the present compounds will be useful in the treatment of brain ischemia.

Dopamine D2 = target: T2, Dopamine D2 (Rattus norvegicus, UniProt P61169); assay: Dopamine D2 Binding Assay ([3H]Spiperone, corpus striatum membranes); design: species or system male Sprague-Dawley rats; settings: [3H]Spiperone 0.1 nM, 37° C., 15 min
T2 construct: The corpus striatum was crudely dissected and frozen on dry ice; from tissue; host or cells: rat corpus striatum membranes (male Sprague-Dawley rats, Charles River)
T2 sequence (P61169 whole entry): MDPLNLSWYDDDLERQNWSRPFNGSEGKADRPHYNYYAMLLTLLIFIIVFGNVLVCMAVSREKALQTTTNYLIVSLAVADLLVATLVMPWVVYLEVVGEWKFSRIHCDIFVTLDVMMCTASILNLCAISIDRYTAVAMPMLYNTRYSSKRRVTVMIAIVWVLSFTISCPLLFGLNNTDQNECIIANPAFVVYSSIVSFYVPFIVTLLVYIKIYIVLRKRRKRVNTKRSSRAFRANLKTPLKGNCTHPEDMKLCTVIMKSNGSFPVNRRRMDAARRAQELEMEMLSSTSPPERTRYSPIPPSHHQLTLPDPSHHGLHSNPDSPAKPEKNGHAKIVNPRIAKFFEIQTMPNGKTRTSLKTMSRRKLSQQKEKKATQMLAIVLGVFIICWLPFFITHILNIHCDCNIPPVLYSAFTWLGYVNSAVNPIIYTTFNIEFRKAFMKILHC
Procedure: Activity at D2 sites is measured using the screening process set out in Example 67.
Dopamine D2 Binding Assay
Dopamine D2 affinity was determined according to the procedures of Burt, Creese and Snyder [Molecular Pharmacology 12,800 (1976); Science 196, 326 (1977); Science 192, 481 (1976)]. Briefly, male Sprague-Dawley rats (Charles River) were decapitated, brains rapidly removed and chilled in ice-cold 50 mM Hepes/KOH buffer (pH 7.4, 20° C.). The corpus striatum was crudely dissected and frozen on dry ice. Tissue was pooled and stored at -80° C. until use. On the day of assay, tissue was thawed in 20 ml ice-cold Hepes/KOH buffer, and homogenized with a polytron for 15 sec at 18,000 rpm. The homogenate was centrifuged (39,000×g, 10 min, at 4° C.). The supernatant was discarded and the pellet rehomogenized in ice-cold Hepes/KOH buffer and recentrifuged as described previously. The supernatant was again discarded and the pellet resuspended (1:100) in ice-cold Hepes/KOH buffer (pH 7.4, 20° C., containing 120 mM NaCl, 5 mM KCl, 1 mM MgCl2, 0.1% (w/v) ascorbic acid, and 10 μM pargylline, and stored on ice until assay. The binding assay (1 ml total volume) was performed in duplicate and initiated by the addition of 800 μl membrane homogenate to tubes containing 100 μl [^3 H]Spiperone (0.1 nM final concentration), and 100 μl competitor, buffer, or butaclamol, which was used to define the non-specific binding. The assay was incubated at 37° C. for 15 min, afterwhich the assay was terminated by rapid filtration.
In vitro IC50 test values for binding to the D2 receptor were determined for representative compounds of Formula I by the method of Burt, Creese, and Snyder, Molecular Pharmacology 12, 800 (1976); Creese, Burt, and Snyder, Science 196, 326 (1977); and Creese, Burt and Snyder, Science 192, 481 (1976). Test IC50 values greater than 1,000 nM are considered to reflect inactivity at the D2 receptor, indicating the risk of extrapyramidal side effects is small.

T1 sequence (Q60492 whole entry): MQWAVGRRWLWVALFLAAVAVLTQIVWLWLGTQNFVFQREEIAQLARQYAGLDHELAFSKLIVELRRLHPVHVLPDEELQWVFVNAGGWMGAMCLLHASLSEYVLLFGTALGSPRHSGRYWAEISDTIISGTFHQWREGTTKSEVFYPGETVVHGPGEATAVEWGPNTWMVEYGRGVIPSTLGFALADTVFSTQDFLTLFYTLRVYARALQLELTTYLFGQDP

| SMILES | IC50 (sigma receptor) [nM] | IC50 (Dopamine D2) [nM] | responders at 10 mg/kg (brain ischemia; 10 mg/kg) [%] | also measured |
| --- | --- | --- | --- | --- |
| Fc1ccc([C@H]2CC[C@@H](N3CCN(Cc4ccccc4)CC3)CC2)c2ccccc12 [Example 62-cis, Cis and trans 1-[4-(4-fluoro-1-naphthalenyl)-1-cyclohexyl]-4-(phenylmethyl)piperazine] | 6.9 | > 100000 | – | responders at 40 mg/kg (brain ischemia): 63% |
| Fc1ccc2[nH]cc(C3=CCC(N4CCN(Cc5ccccc5)CC4)CC3)c2c1 (stereo not drawn) [Example 49, 5-Fluoro-3-{4-[4-(phenylmethyl)-1-piperazinyl]-1-cyclohexen-1-yl]-1H-indole] | 8.6 | 1000 to 10000 | – | responders at 10 mg/kg (brain ischemia; 10 & 60 mg/kg): 92% |
| COc1ccc(C2=CCC(N3CCN(Cc4ccccc4)CC3)CC2)cc1 (stereo not drawn) [Example 39, 1-[4-(4-Methoxyphenyl)-3-cyclohexen-1-yl]-4-(phenylmethyl)piperazine] | 0.9 | 1000 to 10000 | – | responders at 20 mg/kg (brain ischemia; 20 & 30 mg/kg): 92% |
| Fc1ccc(C2=CCC(N3CCN(Cc4ccccc4)CC3)CC2)c2ccccc12 (stereo not drawn) [Example 36, 1-[4-(4-Fluoro-1-naphthalenyl)-3-cyclohexen-1-yl]-4-(phenylmethyl)piperazin] | – | 1000 to 10000 | – | responders at 50 mg/kg (brain ischemia; 50 mg/kg): 100% |
| C1=C(c2ccc3c(c2)OCO3)CCC(N2CCN(Cc3ccccc3)CC2)C1 (stereo not drawn) [Example 37, 1-[4-(1,3-Benzodioxol-5-yl)-3-cyclohexen-1-yl]-4-(phenylmnethyl) piperazine] | 1.9 | 10000 to 50000 | – | responders at 40 mg/kg (brain ischemia): 92% |
| Fc1ccccc1CC1CCN(C2CC=C(c3ccc4c(c3)OCO4)CC2)CC1 (stereo not drawn) [Example 53, 1-[4-(1,3-Benzodioxol-5-yl)-3-cyclohexen-1-yl]-4-[(2-fluorophenyl)methyl]piperidine] | – | 1000 to 10000 | – | – |
| Clc1ccc2[nH]cc(C3=CCC(N4CCN(Cc5ccccc5)CC4)CC3)c2c1 (stereo not drawn) [Example 50, 5-Chloro-3-{4-[4-(phenylmethyl)-1-piperazinyl]-1-cyclohexen-1-yl]-1H-indole] | 31.4 | 10000 to 50000 | – | responders at 20 mg/kg (brain ischemia; 20 mg/kg): 100% |
| Fc1ccc(F)c(CC2CCN(C3CC=C(c4ccc5c(c4)OCO5)CC3)CC2)c1 (stereo not drawn) [Example 54, 1-[4-(1,3-Benzodioxol-5-yl)-3-cyclohexen-1-yl]-4-[(2,5-difluorophenyl)methyl]piperidine] | 3.6 | 1000 to 10000 | 38 | – |
| Fc1ccc(CN2CCN(C3CC=C(c4ccc(F)cc4)CC3)CC2)cc1 (stereo not drawn) [Example 41, 1-[4-(4-Fluorophenyl)-3-cyclohexen-1-yl]-4-[(4-fluorophenyl)methyl]piperazine] | 0.6 | 1000 to 10000 | – | responders at 20 mg/kg (brain ischemia; 20 mg/kg): 92% |
| Fc1ccc(C2=CCC(N3CCN(Cc4ccc5ccccc5n4)CC3)CC2)cc1 (stereo not drawn) [Example 45, 2{{4-[4-(4-Fluorophenyl)-3-cyclohexen-1-yl]-1-piperazinyl]methyl]quinoline] | – | 1000 to 10000 | – | responders at 20 mg/kg (brain ischemia; 20 mg/kg): 83% |
| Fc1ccc(CN2CCN(C3CC=C(c4ccc(C(F)(F)F)cc4)CC3)CC2)cc1 (stereo not drawn) [Example 42, 1-[(4-Fluorophenyl)methyl]-4-[4-[4-(trifluoromethyl)phenyl]-3-cyclohexen-1-yl]piperazine] | 6.9 | > 100000 | – | responders at 20 mg/kg (brain ischemia; 20 mg/kg): 100% |
| COc1cccc(CN2CCN(C3CC=C(c4ccc5c(c4)OCO5)CC3)CC2)c1 (stereo not drawn) [Example 59, 1-[4-(1,3-Benzodioxol-5-yl)-3-cyclohexen-1-yl]-4-[(3-methoxyphenyl)methyl]piperazine] | – | 1000 to 10000 | 75 | – |
| Fc1ccc(C2=CCC(N3CCN(Cc4cccs4)CC3)CC2)cc1 (stereo not drawn) [Example 44, 1-[4-(4-Fluorophenyl)-3-cyclohexen-1-yl]-4-(2-thienylmethyl)piperazine] | – | 1000 to 10000 | – | responders at 40 mg/kg (brain ischemia): 100% |
| C1=C(Cc2ccccc2)CCC(N2CCN(Cc3ccccc3)CC2)C1 (stereo not drawn) [Example 43, 1-(Phenylmethyl)-4-[4-(phenylmethyl)-3-cyclohexen-1-yl]piperazine] | 2.1 | 1000 to 10000 | – | responders at 5 mg/kg (brain ischemia; 5 mg/kg): 75% |
| Ic1ccc(I)c(CN2CCN(C3CC=C(c4ccc5c(c4)OCO5)CC3)CC2)c1 (stereo not drawn) [Example 61, 1-[4-(1,3-Benzodioxol-5-yl)-3-cyclohexen-1-yl]-4-[(2,5-diiodophenyl)methyl]piperazine] | – | > 100000 | – | – |
| C1=C(c2ccc3c(c2)OCCO3)CCC(N2CCN(Cc3ccccc3)CC2)C1 (stereo not drawn) [Example 56, 1-[4-(1,4-Benzodioxan-6-yl)-3-cyclohexen-1-yl]-4-(phenylmethyl)piperazine] | – | – | 100 | – |
| Fc1ccc(F)c(CC2CCN(C3CC=C(c4ccc(F)c(F)c4)CC3)CC2)c1 (stereo not drawn) [Example 55, 1-[4-(3,4-Difluorophenyl)-3-cyclohexen-1-yl]-4-[(2,5-difluorophenyl)methyl]piperidine] | – | 1000 to 10000 | – | – |
| Fc1ccc(F)c(CN2CCN(C3CC=C(c4ccc5c(c4)OCO5)CC3)CC2)c1 (stereo not drawn) [Example 58, 1-[4-(1,3-Benzodioxol-5-yl)-3-cyclohexen-1-yl]-4-[(2,5-difluorophenyl)methyl]piperazine] | – | 1000 to 10000 | 62 | – |
| Clc1ccccc1CN1CCN(C2CC=C(c3ccc4c(c3)OCO4)CC2)CC1 (stereo not drawn) [Example 57, 1-[4-(1,3-Benzodioxol-5-yl)-3-cyclohexen-1-yl]-4-[(2-chlorophenyl)methyl]piperazine] | – | 1000 to 10000 | 25 | – |
| Fc1ccc([C@H]2CC[C@H](N3CCN(Cc4ccc5ccccc5n4)CC3)CC2)cc1 [Example 64, Trans 2-{{4-[4-(4-fluorophenyl)-1-cyclohexyl]-1-piperazinyl}methyl]quinoline] | – | 1000 to 10000 | – | responders at 5 mg/kg (brain ischemia; 5 & 20 mg/kg): 83% |
| COc1cccc(CC2CCN(C3CC=C(c4ccc5c(c4)OCO5)CC3)CC2)c1 (stereo not drawn) [Example 52, 1-[4-(1,3-Benzodioxol-5-yl)-3-cyclohexen-1-yl]-4-[(3-methoxyphenyl)methyl]piperidine] | 7.4 | 1000 to 10000 | 38 | – |
| COc1cccc(CN2CCN(C3CC=C(c4ccc(F)cc4)CC3)CC2)c1 (stereo not drawn) [Example 60, 1-[(4-Fluorophenyl)-3-cyclohexen-1-yl]-4-[(3-methoxyphenyl)methyl]piperazine] | 5.2 | 1000 to 10000 | 50 | – |
